The assay has as its system Blattalla germanica. As to the kind of experiment: Test Example 5: filter paper with sucrose bait, Blattalla germanica male imagoes. Format: in vivo. The following applies: 500 ppm active ingredient, 0.7 ml on filter paper; 2 male imagoes; after 6 days. As to the method:
A formulation of any one of the present compounds (1t), (1c), (3), (4), (7) and (8) obtained according to Formulation Example 16 was diluted with water to prepare a test solution having 500 ppm of the active ingredient.
A filter paper having a diameter of 5.5 cm was spread on the bottom of a polyethylene cup having a diameter of 5.5 cm and 0.7 ml of the test solution was added dropwise onto the filter paper. As a bait, 30 mg of sucrose was uniformly placed on the filter paper. Into the polyethylene cup, 2 male imagoes of Blattalla germanica were released and the cup was sealed with a lid. After 6 days, the number of surviving or dead Blattalla germanica was counted and the death rate of the pest was calculated.
In the case of `C#C[C@H]1CC[C@H](CC(C#N)(C#N)CCC(F)(F)F)CC1` [(1t)], the pest death rate is listed as 100%. In the case of `C#CC12CCC(CC(C#N)(C#N)CCC(F)(F)F)CC1O2` (stereo not drawn) [(4)], the pest death rate is listed as 100%. In turn, `C#CC1(F)CCC(CC(C#N)(C#N)CCC(F)(F)F)CC1` (stereo not drawn) [(3)] came in with a pest death rate of 100%.

`CON=C1CCC(CC(C#N)(C#N)CCC(F)(F)F)CC1` (stereo not drawn) [(8)]: the pest death rate is 100%.

In turn, `C#C[C@H]1CC[C@@H](CC(C#N)(C#N)CCC(F)(F)F)CC1` [(1c)] registered a pest death rate of 100%. For `C#CC1(F)CCC(CCC(C#N)(C#N)CCC(F)(F)F)CC1` (stereo not drawn) [(7)], the pest death rate was 100%.

Values taken from patent US8344163B2, “Nitrile compound and its use for control of arthropod pest” (Sumitomo Chemical Company, Limited, priority 2008, dated 2013).
